Values joined by “and” are separate entries in the source; they are usually repeats but may differ in a detail not shown here. Equal values may be shown once.
Test system: Candida albicans ATCC14053
Experiment: Broth micro-dilution screen at 16 μg/mL and MIC (Example 9)
Format: cell-based
Settings: for Screen at 16 μg/mL: single concentration 16 μg/mL, Growth or No growth of C. albicans ATCC14053; for MIC: C. albicans ATCC14053, test range 0.25-64 μg/mL, duplicate
Procedure: The antifungal activity of 201 NCL analogs against Candida albicans ATCC14053 in vitro was investigated. A broth micro-dilution method was used, according to CLSI guidelines as described. NCL analogs were dissolved in DMSO and originally screened at a single concentration of 16 μg/mL.

Row | Compound | Screen at 16 μg/mL | MIC
1 | O=C(NN=Cc1ccc(Cl)cc1)NN=Cc1ccc(Cl)cc1 [NCL001] | Growth | –
2 | O=C(NN=Cc1ccccc1Cl)NN=Cc1ccccc1Cl [NCL002] | Growth | –
3 | COc1ccc(C=NNC(=O)NN=Cc2ccc(OC)cc2)cc1 [NCL006] | Growth | –
4 | N#Cc1ccc(C=NNC(=O)NN=Cc2ccc(C#N)cc2)cc1 [NCL007] | Growth | –
5 | COc1cccc(C=NNC(=O)NN=Cc2cccc(OC)c2)c1 [NCL010] | Growth | –
6 | O=C(NN=Cc1cccc(C(F)(F)F)c1)NN=Cc1cccc(C(F)(F)F)c1 [NCL011] | Growth | –
7 | O=C(NN=Cc1ccc(C(F)(F)F)cc1)NN=Cc1ccc(C(F)(F)F)cc1 [NCL012] | Growth | –
8 | O=C(NN=Cc1ccccc1C(F)(F)F)NN=Cc1ccccc1C(F)(F)F [NCL013] | Growth | –
9 | Cl.N=C(N)NN=Cc1ccccc1Cl [NCL015] | Growth | –
10 | Cl.N=C(N)NN=Cc1ccccc1F [NCL016] | Growth | –
11 | Cl.N=C(N)NN=Cc1cccc(F)c1 [NCL017] | Growth | –
12 | Cc1ccccc1C=NNC(=O)NN=Cc1ccccc1C [NCL018] | Growth | –
13 | Cc1cccc(C=NNC(=O)NN=Cc2cccc(C)c2)c1 [NCL019] | Growth | –
14 | Cl.N=C(NN=Cc1ccc(F)cc1)NN=Cc1ccc(F)cc1 [NCL021] | No growth | 0.5 µg/mL and 1 µg/mL
15 | Cl.N=C(NN=Cc1ccccc1F)NN=Cc1ccccc1F [NCL022] | Growth | –
16 | Cl.N#Cc1cccc(C=NNC(=N)NN=Cc2cccc(C#N)c2)c1 [NCL026] | Growth | –
17 | COc1ccc(C=NNC(=N)NN=Cc2ccc(OC)cc2)cc1.Cl [NCL027] | No growth | 8 µg/mL and 16 µg/mL
18 | COc1ccccc1C=NNC(=N)NN=Cc1ccccc1OC.Cl [NCL028] | Growth | –
19 | COc1cccc(C=NNC(=N)NN=Cc2cccc(OC)c2)c1.Cl [NCL029] | Growth | –
20 | Cl.N=C(N)N/N=C/c1ccc(Cl)cc1 [NCL030] | Growth | –
21 | Cl.N#Cc1ccc(C=NNC(=N)N)cc1 [NCL031] | Growth | –
22 | Cl.N#Cc1cccc(C=NNC(=N)N)c1 [NCL033] | Growth | –

Row | Compound | Screen at 16 μg/mL | MIC
23 | Cl.N=C(NN=Cc1ccccc1C(F)(F)F)NN=Cc1ccccc1C(F)(F)F [NCL036] | Growth | –
24 | Cl.N=C(NN=Cc1cccc(C(F)(F)F)c1)NN=Cc1cccc(C(F)(F)F)c1 [NCL037] | Growth | –
25 | Cc1ccc(C=NNC(=N)NN=Cc2ccc(C)cc2)cc1.Cl [NCL038] | No growth | 2 µg/mL and 4 µg/mL
26 | Cc1ccccc1/C=N/NC(=N)N/N=C/c1ccccc1C.Cl [NCL039] | No growth | 4 µg/mL and 8 µg/mL
27 | Cc1cccc(C=NNC(=N)NN=Cc2cccc(C)c2)c1.Cl [NCL040] | No growth | 8 µg/mL and 16 µg/mL
28 | Cl.N=C(N)N/N=C/c1ccc(C(F)(F)F)cc1 [NCL041] | Growth | –
29 | Cl.N=C(N)NN=Cc1ccccc1C(F)(F)F [NCL042] | Growth | –
30 | Cl.N=C(N)NN=Cc1cccc(C(F)(F)F)c1 [NCL043] | Growth | –
31 | Cc1ccc(/C=N/NC(=N)N)cc1.Cl [NCL044] | Growth | –
32 | Cc1ccccc1C=NNC(=N)N.Cl [NCL045] | Growth | –
33 | Cc1cccc(C=NNC(=N)N)c1.Cl [NCL046] | Growth | –
34 | Cl.N=C(N)NN=Cc1cccc(Cl)c1 [NCL052] | Growth | –
35 | Cl.N=C(N)NN=Cc1ccc(F)cc1 [NCL053] | Growth | –
36 | Cl.N=C(NN=Cc1cccc(Cl)c1)NN=Cc1cccc(Cl)c1 [NCL054] | No growth | 4 µg/mL and 8 µg/mL
37 | CC(=NNC(=N)NN=C(C)c1ccc(C(F)(F)F)cc1)c1ccc(C(F)(F)F)cc1.Cl [NCL061] | Growth | –
38 | Cl.N=C(NN=Cc1ccc2ccccc2c1)NN=Cc1ccc2ccccc2c1 [NCL093] | Growth | –
39 | Cl.N=C(NN=Cc1ccoc1)NN=Cc1ccoc1 [NCL095] | Growth | –
40 | Cl.N=C(NN=CC=Cc1ccccc1)NN=CC=Cc1ccccc1 [NCL096] | Growth | –
41 | Cl.N=C(NN=Cc1cccc(C(=O)O)c1)NN=Cc1cccc(C(=O)O)c1 [NCL098] | Growth | –
42 | CC(C)(C)c1ccc(/C=N/NC(=N)N/N=C/c2ccc(C(C)(C)C)cc2)cc1.Cl [NCL099] | Growth | –
43 | Cl.N=C(NN=Cc1ccccc1)NN=Cc1ccccc1 [NCL100] | Growth | –
44 | Cl.N=C(NN=Cc1cccc(O)c1O)NN=Cc1cccc(O)c1O [NCL101] | No growth | –

Row | Compound | Screen at 16 μg/mL | MIC
45 | Cl.N=C(NN=Cc1ccccc1[N+](=O)[O-])NN=Cc1ccccc1[N+](=O)[O-] [NCL102] | Growth | –
46 | Cl.N=C(NN=Cc1cc(O)c(O)cc1O)NN=Cc1cc(O)c(O)cc1O [NCL104] | Growth | –
47 | Cl.N=C(NN=Cc1ccc(O)c(O)c1O)NN=Cc1ccc(O)c(O)c1O [NCL105] | No growth | 2 µg/mL and 4 µg/mL
48 | COc1cc(C=NNC(=N)NN=Cc2cc(O)c(O)c(OC)c2)cc(O)c1O.Cl [NCL106] | Growth | –
49 | Cl.N=C(NN=Cc1ccccc1O)NN=Cc1ccccc1O [NCL107] | No growth | 2 µg/mL and 4 µg/mL
50 | Cl.N=C(NN=Cc1cccc(O)c1)NN=Cc1cccc(O)c1 [NCL108] | Growth | –
51 | Cl.N=C(NN=Cc1cccc([N+](=O)[O-])c1)NN=Cc1cccc([N+](=O)[O-])c1 [NCL109] | Growth | –
52 | N=C(N/N=C/c1ccc(-c2ccccc2)cc1)N/N=C/c1ccc(-c2ccccc2)cc1 [NCL112] | Growth | –
53 | Cl.N=C(NN=Cc1ccccc1-c1ccccc1)NN=Cc1ccccc1-c1ccccc1 [NCL116] | Growth | –
54 | COc1cc(C=NNC(=N)NN=Cc2ccc(O)c(OC)c2)ccc1O.Cl [NCL117] | Growth | –
55 | Cl.N=C(NN=Cc1cc(F)ccc1F)NN=Cc1cc(F)ccc1F [NCL118] | Growth | –
56 | CC(=O)Nc1ccc(C=NNC(=N)NN=Cc2ccc(NC(C)=O)cc2)cc1.Cl [NCL119] | Growth | –
57 | CC(C)c1ccc(C=NNC(=N)NN=Cc2ccc(C(C)C)cc2)cc1.Cl [NCL120] | Growth | –
58 | CCCc1ccc(C=NNC(=N)NN=Cc2ccc(CCC)cc2)cc1.Cl [NCL121] | No growth | 4 µg/mL and 8 µg/mL
59 | Cl.N=C(NN=Cc1ccc(O)c([N+](=O)[O-])c1)NN=Cc1ccc(O)c([N+](=O)[O-])c1 [NCL122] | Growth | –
60 | Cl.N=C(NN=Cc1ccc(F)c(F)c1)NN=Cc1ccc(F)c(F)c1 [NCL123] | No growth | 1 µg/mL
61 | Cl.N=C(NN=Cc1c(O)ccc2ccccc12)NN=Cc1c(O)ccc2ccccc12 [NCL124] | Growth | –
62 | COc1ccc(C=NNC(=N)NN=Cc2ccc(OC)c(O)c2)cc1O.Cl [NCL125] | Growth | –
63 | C#Cc1cccc(C=NNC(=N)NN=Cc2cccc(C#C)c2)c1.Cl [NCL126] | No growth | 4 µg/mL
64 | Cl.N=C(NN=Cc1ccc(Cl)cc1Cl)NN=Cc1ccc(Cl)cc1Cl [NCL127] | Growth | –
65 | Cl.N=C(NN=Cc1ccccc1Br)NN=Cc1ccccc1Br [NCL129] | Growth | –
66 | COc1cc(C=NNC(=N)NN=Cc2cc(Br)c(OC)c(OC)c2)cc(Br)c1OC.Cl [NCL130] | Growth | –

Row | Compound | Screen at 16 μg/mL | MIC
67 | Cl.N=C(NN=Cc1cccc(Br)c1)NN=Cc1cccc(Br)c1 [NCL131] | Growth | –
68 | Cl.N=C(NN=CC1=C(Cl)c2cc(F)ccc2OC1)NN=CC1=C(Cl)c2cc(F)ccc2OC1 [NCL132] | Growth | –
69 | Cl.N=C(NN=Cc1cc(Br)co1)NN=Cc1cc(Br)co1 [NCL133] | Growth | –
70 | Cl.N=C(NN=Cc1ccc(Br)cc1)NN=Cc1ccc(Br)cc1 [NCL134] | No growth | <1 µg/mL
71 | CCCCc1ccc(C=NNC(=N)NN=Cc2ccc(CCCC)cc2)cc1.Cl [NCL136] | Growth | –
72 | Cl.N=C(NN=Cc1c(Cl)cccc1Cl)NN=Cc1c(Cl)cccc1Cl [NCL137] | Growth | –
73 | Cl.N=C(NN=CC(=Cc1ccccc1)c1ccccc1)NN=CC(=Cc1ccccc1)c1ccccc1 [NCL138] | Growth | –
74 | CSc1ccc(C=NNC(=N)NN=Cc2ccc(SC)cc2)cc1.Cl [NCL140] | No growth | 1 µg/mL and 2 µg/mL
75 | CC(=NNC(=N)NN=C(C)c1ccccc1)c1ccccc1.Cl [NCL143] | Growth | –
76 | Cl.N=C(NN=Cc1ccc(Br)o1)NN=Cc1ccc(Br)o1 [NCL144] | Growth | –
77 | Cl.N=C(NN=Cc1ccc(Cl)o1)NN=Cc1ccc(Cl)o1 [NCL145] | Growth | –
78 | Cl.N=C(NN=Cc1ccc2[nH]ccc2c1)NN=Cc1ccc2[nH]ccc2c1 [NCL146] | No growth | 4 µg/mL and 8 µg/mL
79 | Cl.N=C(NN=Cc1cnc2ccccc2n1)NN=Cc1cnc2ccccc2n1 [NCL147] | Growth | –
80 | Cl.N=C(NN=Cc1ccc(C=CC(=O)O)cc1)NN=Cc1ccc(C=CC(=O)O)cc1 [NCL148] | Growth | –
81 | Cl.N=C(NN=Cc1ccncc1)NN=Cc1ccncc1 [NCL149] | Growth | –
82 | COc1ccc(C=CC=NNC(=N)NN=CC=Cc2ccc(OC)cc2)cc1.Cl [NCL150] | No growth | 1 µg/mL
83 | Cl.N=C(NN=Cc1ccc(O)cc1)NN=Cc1ccc(O)cc1 [NCL151] | Growth | –
84 | Cc1cccc(C=NNC(=N)NN=Cc2cccc(C)c2O)c1O.Cl [NCL152] | Growth | –
85 | CCC(=NNC(=N)NN=C(CC)c1ccc(Cl)cc1)c1ccc(Cl)cc1.Cl [NCL153] | Growth | –

Source: patent publication US20230310388A1, “Methods and Compositions for Treating Fungal Infections” (Neoculi Pty Ltd, priority 2020, published 2023)
